Structures can show the parent of a compound that is named as a salt.
Key:
Format in all cases: in vivo
[1] = test system: rice brown planthopper (Nilaparvata lugens); assay: Test H: control of rice brown planthopper on rice plant; conditions: 120 h, sprayed at 10 ppm, assessed after 5 days, read-out: control efficacy: mortality
Protocol: For evaluating control of rice brown planthopper (Nilaparvata lugens) through contact and/or systemic means, the test unit consisted of a plastic pot containing a 13-cm-tall rice plant covered with steel wire mesh (50 mesh) supported by a wire frame. A small amount of sand was added to form a good seal between the bottom of the wire mesh, the soil surface and the top edge of the plastic pot.
Test compounds were formulated and sprayed at 10, 2 and/or 0.4 ppm, and the tests were replicated three times in a manner similar to the one described for Test A. After spraying, the test units were allowed to dry for 2 h before they were post-infested with 10 brown planthoppers (3rd instar nymphs, 7-9 days post-hatch). After 5 days, each test unit was visually assessed for insect mortality.

[2] = test system: rice green leafhopper (Nephotettix virescens); assay: Test G: control of rice green leafhopper on rice plant; conditions: 120 h, sprayed at 50 ppm, assessed after 5 days, read-out: control efficacy: mortality
Protocol: For evaluating control of rice green leafhopper (Nephotettix virescens) through contact and/or systemic means, the test unit consisted of a plastic pot containing a 13-cm-tall rice plant covered with steel wire mesh (50 mesh) supported by a wire frame. A small amount of sand was added to form a good seal between the bottom of the wire mesh, the soil surface and the top edge of the plastic pot.
Test compounds were formulated and sprayed at 50, 10 and/or 2 ppm, and the tests were replicated three times in a manner similar to the one described for Test A. After spraying, the test units were allowed to dry for 2 h before they were post-infested with 10 green leafhoppers (3rd instar nymphs, 7-9 days post-hatch). After 5 days, each test unit was visually assessed for insect mortality.

[3] = test system: potato leafhopper (Empoasca fabae); assay: Test E: control of potato leafhopper on Soleil bean plant, contact and/or systemic; conditions: 144 h, assessed after 6 days, read-out: control efficacy: mortality; for mortality at 10 ppm: sprayed at 10 ppm; for mortality at 50 ppm: sprayed at 50 ppm
Protocol: For evaluating control of potato leafhopper (Empoasca fabae) through contact and/or systemic means, the test unit consisted of a small open container with a 5-6-day-old Soleil bean plant (primary leaves emerged) inside. White sand was added to the top of the soil and one of the primary leaves was excised prior to application.
Test compounds were formulated and sprayed at 250, 50, 10 and/or 2 ppm, and the tests were replicated three times as described for Test A. After spraying, the test units were allowed to dry for 1 h before they were post-infested with 5 potato leafhoppers (18-21-day-old adults). A black, screened cap was placed on the top of each test unit, and the test units were held for 6 days in a growth chamber at 24° C. and 70% relative humidity. Each test unit was then visually assessed for insect mortality.

[4] = test system: corn planthopper (Peregrinus maidis); assay: Test D: control of corn planthopper on maize plant, contact and/or systemic; conditions: 144 h, assessed after 6 days, read-out: control efficacy: mortality; for mortality at 10 ppm: sprayed at 10 ppm; for mortality at 50 ppm: sprayed at 50 ppm
Protocol: For evaluating control of corn planthopper (Peregrinus maidis) through contact and/or systemic means, the test unit consisted of a small open container with a 3-4-day-old maize plant (spike) inside. White sand was added to the top of the soil prior to application. Test compounds were formulated and sprayed at 250, 50, 10 and/or 2 ppm, and replicated three times as described for Test A. After spraying, the test units were allowed to dry for 1 h before they were post-infested with ˜15-20 nymphs (18 to 21 day old) by sprinkling them onto the sand with a salt shaker. A black, screened cap was placed on the top of each test unit, and the test units were held for 6 days in a growth chamber at 22-24° C. and 50-70% relative humidity. Each test unit was then visually assessed for insect mortality.

[5] = test system: cotton melon aphid (Aphis gossypii); assay: Test C: control of cotton melon aphid on cotton plant, contact and/or systemic
Excerpt: For evaluating control of cotton melon aphid (Aphis gossypii) through contact and/or systemic means, the test unit consisted of a small open container with a 6-7-day-old cotton plant inside. This was pre-infested with 30-40 insects on a piece of leaf according to the cut-leaf method described for Test B, and the soil of the test unit was covered with a layer of sand.
Test compounds were formulated and sprayed at 250 and/or 50 ppm as described for Test B. The applications were replicated three times. After spraying, the test units were maintained in a growth chamber and then visually rated as described for […].

[6] = test system: green peach aphid (Myzus persicae); assay: Test B: control of green peach aphid on radish plant, contact and/or systemic; conditions: 144 h, assessed after 6 days
Excerpt: For evaluating control of green peach aphid (Myzus persicae) through contact and/or systemic means, the test unit consisted of a small open container with a 12-15-day-old radish plant inside. This was pre-infested by placing on a leaf of the test plant 30-40 aphids on a piece of leaf excised from a culture plant (cut-leaf method). The aphids moved onto the test plant as the leaf piece desiccated. After pre-infestation, the soil of the test unit was covered with a layer of sand.
Test compounds were formulated and sprayed at 250, 50 and/or 10 ppm as described for Test A. The applications were replicated three times. After spraying of the formulated test compound, each test unit was allowed to dry for 1 h and then a black, screened cap was placed on top. The test units were held for 6 days in a growth chamber at 19-21° C. and 50-70% relative humidity. Each test unit was then visually assessed for insect mortality.

O=c1c(-c2ccc(F)c(C(F)(F)F)c2)c([O-])[n+](Cc2cncnc2)c2ccccn12 [Compound 12, 3-[4-fluoro-3-(trifluoromethyl)phenyl]-2-hydroxy-4-oxo-1-(5-pyrimidinylmethyl)-4H-pyrido[1,2-a]pyrimidinium inner salt]
≥ 80%: mortality at 10 ppm [1] | mortality at 50 ppm [2] | mortality at 10 ppm [3] | mortality at 50 ppm [3] | mortality at 10 ppm [4] | mortality at 50 ppm [4] | mortality at 50 ppm ([5]; sprayed at 50 ppm)

O=c1c(-c2ccccc2)c([O-])[n+](Cc2cncnc2)c2ccccn12 [Compound 1, 2-hydroxy-4-oxo-3-phenyl-1-(5-pyrimidinylmethyl)-4H-pyrido[1,2-a]pyrimidinium inner salt]
≥ 80%: mortality at 2 ppm ([3]; sprayed at 2 ppm) | mortality at 10 ppm [3] | mortality at 50 ppm [3] | mortality at 250 ppm ([3]; sprayed at 250 ppm) | mortality at 10 ppm [4] | mortality at 50 ppm [4] | mortality at 250 ppm ([4]; sprayed at 250 ppm) | mortality at 50 ppm ([6]; sprayed at 50 ppm) | mortality at 250 ppm ([6]; sprayed at 250 ppm) | mortality at 250 ppm ([5]; sprayed at 250 ppm)
